From paper PMC5065774 (Bioorganic & medicinal chemistry, 2016)

Experiments:
[1] = system: TALL-104 CTL human leukemia cells; assay: Cytotoxic T-lymphocyte; type: cell-based; conditions: 100 μM
HDAC1 = HDAC1 (Homo sapiens, UniProt Q13547); assay: HDAC isozyme panel at BPS Bioscience, HDAC1; type: biochemical; conditions: read-out: % inhibition of HDAC1
HDAC3 = HDAC3 (Homo sapiens, UniProt O15379); assay: HDAC isozyme panel at BPS Bioscience, HDAC3; type: biochemical; conditions: read-out: % inhibition of HDAC3
HDAC6 = target: T1, HDAC6 (Homo sapiens, UniProt Q9UBN7); assay: HDAC isozyme panel at BPS Bioscience, HDAC6; type: biochemical; conditions: read-out: % inhibition of HDAC6
T1 sequence (Q9UBN7 1-1215): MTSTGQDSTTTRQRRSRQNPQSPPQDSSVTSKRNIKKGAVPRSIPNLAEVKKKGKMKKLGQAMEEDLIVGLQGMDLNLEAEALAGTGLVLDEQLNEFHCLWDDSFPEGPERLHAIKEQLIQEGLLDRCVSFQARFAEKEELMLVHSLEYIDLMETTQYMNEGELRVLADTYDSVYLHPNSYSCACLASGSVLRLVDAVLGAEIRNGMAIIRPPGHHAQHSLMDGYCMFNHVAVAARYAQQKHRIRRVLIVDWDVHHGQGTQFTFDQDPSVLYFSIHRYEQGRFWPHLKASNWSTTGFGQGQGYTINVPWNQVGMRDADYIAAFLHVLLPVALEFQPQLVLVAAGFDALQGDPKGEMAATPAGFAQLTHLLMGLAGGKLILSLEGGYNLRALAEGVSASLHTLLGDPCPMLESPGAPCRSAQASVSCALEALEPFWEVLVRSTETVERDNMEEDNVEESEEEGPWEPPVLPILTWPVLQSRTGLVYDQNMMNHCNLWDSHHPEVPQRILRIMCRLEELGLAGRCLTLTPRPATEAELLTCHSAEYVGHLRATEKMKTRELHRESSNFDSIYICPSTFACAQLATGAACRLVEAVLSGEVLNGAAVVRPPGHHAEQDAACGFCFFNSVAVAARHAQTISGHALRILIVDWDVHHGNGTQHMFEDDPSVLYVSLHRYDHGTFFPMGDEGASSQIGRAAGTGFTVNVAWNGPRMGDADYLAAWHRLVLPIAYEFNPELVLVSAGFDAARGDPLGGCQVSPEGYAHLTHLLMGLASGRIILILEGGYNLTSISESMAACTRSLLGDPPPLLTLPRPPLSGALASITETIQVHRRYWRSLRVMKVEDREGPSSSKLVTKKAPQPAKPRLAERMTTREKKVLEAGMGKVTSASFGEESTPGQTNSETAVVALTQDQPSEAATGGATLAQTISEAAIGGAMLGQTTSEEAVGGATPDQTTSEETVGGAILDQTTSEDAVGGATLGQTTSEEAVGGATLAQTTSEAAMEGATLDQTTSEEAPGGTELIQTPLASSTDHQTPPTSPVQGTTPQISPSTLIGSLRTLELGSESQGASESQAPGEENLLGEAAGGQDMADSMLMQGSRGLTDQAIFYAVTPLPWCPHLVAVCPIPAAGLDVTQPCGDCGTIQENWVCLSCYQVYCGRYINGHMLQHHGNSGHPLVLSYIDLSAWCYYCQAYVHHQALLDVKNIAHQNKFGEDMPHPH

HDAC10 = target: T2, HDAC10 (Homo sapiens, UniProt Q969S8); assay: HDAC isozyme panel at BPS Bioscience, HDAC10; type: biochemical; conditions: read-out: % inhibition of HDAC10
T2 sequence (Q969S8 1-669): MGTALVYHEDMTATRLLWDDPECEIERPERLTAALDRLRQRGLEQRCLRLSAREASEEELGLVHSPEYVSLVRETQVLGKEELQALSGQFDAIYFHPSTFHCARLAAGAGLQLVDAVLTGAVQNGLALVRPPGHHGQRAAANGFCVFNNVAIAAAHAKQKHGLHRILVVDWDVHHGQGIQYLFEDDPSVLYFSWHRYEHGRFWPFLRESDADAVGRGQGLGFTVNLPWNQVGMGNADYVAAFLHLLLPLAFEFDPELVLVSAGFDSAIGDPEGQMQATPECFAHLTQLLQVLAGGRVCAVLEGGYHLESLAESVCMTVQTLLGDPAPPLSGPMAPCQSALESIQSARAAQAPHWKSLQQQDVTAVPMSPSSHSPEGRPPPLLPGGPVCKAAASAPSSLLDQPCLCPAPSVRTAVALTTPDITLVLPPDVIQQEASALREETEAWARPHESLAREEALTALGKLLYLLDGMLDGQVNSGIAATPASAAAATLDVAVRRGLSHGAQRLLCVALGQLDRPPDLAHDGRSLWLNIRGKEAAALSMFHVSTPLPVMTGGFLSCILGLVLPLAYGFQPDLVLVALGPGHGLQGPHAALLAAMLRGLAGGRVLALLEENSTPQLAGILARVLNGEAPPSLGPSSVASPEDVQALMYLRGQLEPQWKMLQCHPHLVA

HDAC3, sequence (O15379 whole entry): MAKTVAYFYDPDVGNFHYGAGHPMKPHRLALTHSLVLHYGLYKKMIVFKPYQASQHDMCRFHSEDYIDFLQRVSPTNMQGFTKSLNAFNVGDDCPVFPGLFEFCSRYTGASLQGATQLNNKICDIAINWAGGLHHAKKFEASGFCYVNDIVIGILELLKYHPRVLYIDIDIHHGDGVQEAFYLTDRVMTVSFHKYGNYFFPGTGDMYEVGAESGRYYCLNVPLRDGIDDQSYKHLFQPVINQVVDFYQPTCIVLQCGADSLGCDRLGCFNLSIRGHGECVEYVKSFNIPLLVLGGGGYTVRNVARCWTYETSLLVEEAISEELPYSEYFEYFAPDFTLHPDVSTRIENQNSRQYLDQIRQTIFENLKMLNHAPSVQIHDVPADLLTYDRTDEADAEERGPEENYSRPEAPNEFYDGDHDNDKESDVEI
HDAC3, sequence (Q9Y618 395-489 partner limits assumed): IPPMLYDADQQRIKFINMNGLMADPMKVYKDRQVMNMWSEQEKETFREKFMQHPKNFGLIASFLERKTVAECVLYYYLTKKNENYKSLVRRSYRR
HDAC1, sequence (Q13547 whole entry): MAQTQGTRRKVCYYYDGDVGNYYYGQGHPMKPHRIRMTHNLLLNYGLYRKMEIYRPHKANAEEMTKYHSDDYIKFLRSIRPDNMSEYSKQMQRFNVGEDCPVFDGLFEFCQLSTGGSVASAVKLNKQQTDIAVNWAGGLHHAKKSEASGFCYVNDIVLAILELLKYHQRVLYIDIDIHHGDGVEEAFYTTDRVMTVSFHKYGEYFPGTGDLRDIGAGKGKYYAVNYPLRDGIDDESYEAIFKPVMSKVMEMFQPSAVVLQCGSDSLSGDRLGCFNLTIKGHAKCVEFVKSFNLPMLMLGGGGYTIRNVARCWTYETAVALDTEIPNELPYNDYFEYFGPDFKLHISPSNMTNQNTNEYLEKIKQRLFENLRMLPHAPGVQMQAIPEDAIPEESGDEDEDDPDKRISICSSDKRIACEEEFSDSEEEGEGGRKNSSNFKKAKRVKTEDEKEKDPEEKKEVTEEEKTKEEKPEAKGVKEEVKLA

Row | Structure (SMILES) | augmentation of CD3-stimulated anti-LAMP fluorescence increases (lytic granule exocytosis) [1] [%] | inhibition at 10 µM (HDAC1) [%] | inhibition at 10 µM (HDAC3) [%] | inhibition at 10 µM (HDAC6) [%] | inhibition at 10 µM (HDAC10) [%]
1 | CCOC(=O)NCCCC(=O)Nc1ccc(CO[Si](C)(C)C(C)(C)C)cc1 [Compound 27, Ethyl (4-((4-(((tert-butyldimethylsilyl)oxy)methyl)phenyl)amino)-4-oxobutyl)carbamate] | 26 |  |  |  | 
2 | CCOC(=O)NCCCC(=O)Nc1ccc(O[Si](C)(C)C(C)(C)C)cc1 [Compound 28, Ethyl (4-((4-((tert-butyldimethylsilyl)oxy)phenyl)amino)-4-oxobutyl)carbamate] | 71 |  |  |  | 
3 | O=C(CCCCCCC(=O)Nc1ccccc1)NO [SAHA, suberoylanilide hydroxamic acid] |  | 100 ± 0.3 | 99 ± 0.7 | 100 | 100
